Key:
[1] = molar heat capacity at constant pressure; xn = mol fraction of the nth substance listed; settings: Flow calorimetry
[2] = molar heat capacity at constant pressure; settings: 3000 kPa, Flow calorimetry

CCCCC [pentane] + CC(C)=O
[1]
Settings	molar heat capacity at constant pressure [J/K/mol]
423.14 K, 3900 kPa, Liquid, x1 = 0.25	170.75
423.14 K, 7920 kPa, Liquid, x1 = 0.5	179.32
423.15 K, 2000 kPa, Liquid, x1 = 0.25	174.5
423.15 K, 2900 kPa, Liquid, x1 = 0.5	194.43
423.15 K, 4000 kPa, Liquid, x1 = 0.5	190.78
423.15 K, 6000 kPa, Liquid, x1 = 0.25	171.36
423.15 K, 6050 kPa, Liquid, x1 = 0.5	184.14
423.15 K, 7960 kPa, Liquid, x1 = 0.25	163.97
423.16 K, 1080 kPa, Gas, x1 = 0.5	145.86
423.16 K, 2300 kPa, Liquid, x1 = 0.25	175.12
423.17 K, 1080 kPa, Gas, x1 = 0.25	135.14
483.14 K, 2960 kPa, Gas, x1 = 0.5	180.5
483.14 K, 4000 kPa, Gas, x1 = 0.5	283.18
483.15 K, 4480 kPa, Fluid (supercritical or subcritical phases), x1 = 0.5	750.83
483.15 K, 7050 kPa, Fluid (supercritical or subcritical phases), x1 = 0.5	233.69
483.15 K, 8160 kPa, Fluid (supercritical or subcritical phases), x1 = 0.5	218.13
483.16 K, 5000 kPa, Fluid (supercritical or subcritical phases), x1 = 0.5	446.03
483.16 K, 6100 kPa, Fluid (supercritical or subcritical phases), x1 = 0.5	260.13
493.15 K, 3860 kPa, Gas, x1 = 0.25	221.56
493.15 K, 4530 kPa, Fluid (supercritical or subcritical phases), x1 = 0.25	611.96
493.15 K, 4742 kPa, Fluid (supercritical or subcritical phases), x1 = 0.25	1236.9
493.15 K, 7920 kPa, Fluid (supercritical or subcritical phases), x1 = 0.25	214.05
493.16 K, 3140 kPa, Gas, x1 = 0.25	173.64
493.16 K, 6000 kPa, Fluid (supercritical or subcritical phases), x1 = 0.25	263.45
503.14 K, 3200 kPa, Gas, x1 = 0.25	167.97
503.14 K, 4120 kPa, Gas, x1 = 0.25	214.42
503.15 K, 6180 kPa, Fluid (supercritical or subcritical phases), x1 = 0.25	330.59
503.15 K, 7820 kPa, Fluid (supercritical or subcritical phases), x1 = 0.25	229.45
503.16 K, 5400 kPa, Fluid (supercritical or subcritical phases), x1 = 0.25	600.07
508.15 K, 2980 kPa, Gas, x1 = 0.5	175.81
508.15 K, 4060 kPa, Gas, x1 = 0.5	200.68
508.15 K, 6050 kPa, Fluid (supercritical or subcritical phases), x1 = 0.5	360.73
508.15 K, 6930 kPa, Fluid (supercritical or subcritical phases), x1 = 0.5	310.98
508.15 K, 8010 kPa, Fluid (supercritical or subcritical phases), x1 = 0.5	261.37
508.16 K, 5030 kPa, Fluid (supercritical or subcritical phases), x1 = 0.5	258.63

O [water]
[2]
Settings	molar heat capacity at constant pressure [J/K/mol]
330.2 K, Liquid	75.29
340.1 K, Liquid	75.41
358.4 K, Liquid	75.61
368.2 K, Liquid	75.61
378.6 K, Liquid	75.99
388.4 K, Liquid	76.49
398.5 K, Liquid	76.51
408.6 K, Liquid	77.48
418.8 K, Liquid	76.93
428.6 K, Liquid	77.72
438.5 K, Liquid	78.11
448.2 K, Liquid	78.91
458.5 K, Liquid	79.41
468.2 K, Liquid	80.92
478.2 K, Liquid	81.81
488.7 K, Liquid	83.32
498.1 K, Liquid	83.92
508.4 K, Gas	63.31
